Assay results from ChEMBL document CHEMBL1201862, “PubChem BioAssay data set” (2004).
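Each compound was tested at five concentrations against cells in 96-well plates for 48 hours. Abbreviation: GI50, concentration required for 50% inhibition of growth.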 Active and inactive are the calls of the source. Rule as the data show it: active = GI50 up to about 1.1 µM and inactive = higher.

Key:
Test in all cases: inhibition of tumour cell growth, NCI panel, 48 h
786-0 = test system: 786-0
A498 = test system: A498
A549 = test system: A549
ACHN = test system: ACHN
CAKI-1 = test system: CAKI-1
CCRF-CEM = test system: CCRF-CEM
COLO 205 = test system: COLO 205
DU-145 = test system: DU-145
EKVX = test system: EKVX
HCC 2998 = test system: HCC 2998
HCT-116 = test system: HCT-116
HCT-15 = test system: HCT-15
HL-60 = test system: HL-60
HOP-62 = test system: HOP-62
HOP-92 = test system: HOP-92
HT-29 = test system: HT-29
Hs-578T = test system: Hs-578T
IGROV-1 = test system: IGROV-1
K562 = test system: K562
KM12 = test system: KM12
LOX IMVI = test system: LOX IMVI
M14 = test system: M14
MCF7 = test system: MCF7
MDA-MB-231 = test system: MDA-MB-231
MDA-MB-435 = test system: MDA-MB-435
MDA-N = test system: MDA-N
MOLT-4 = test system: MOLT-4
Malme-3M = test system: Malme-3M
NCI-H226 = test system: NCI-H226
NCI-H23 = test system: NCI-H23
NCI-H460 = test system: NCI-H460
NCI-H522 = test system: NCI-H522
NCI/ADR-RES = test system: NCI/ADR-RES
OVCAR-3 = test system: OVCAR-3
OVCAR-4 = test system: OVCAR-4
OVCAR-5 = test system: OVCAR-5
OVCAR-8 = test system: OVCAR-8
PC-3 = test system: PC-3
RPMI-8226 = test system: RPMI-8226
RXF 393 = test system: RXF 393
SF-268 = test system: SF-268
SF-295 = test system: SF-295
SF-539 = test system: SF-539
SK-MEL-28 = test system: SK-MEL-28
SK-MEL-2 = test system: SK-MEL-2
SK-MEL-5 = test system: SK-MEL-5
SK-OV-3 = test system: SK-OV-3
SN12C = test system: SN12C
SNB-19 = test system: SNB-19
SNB-75 = test system: SNB-75
SR = test system: SR
SW-620 = test system: SW-620
T47D = test system: T47D
TK-10 = test system: TK-10
U-251 = test system: U-251
UACC-62 = test system: UACC-62
UO-31 = test system: UO-31
UACC-257 = test system: UACC-257

Measured: GI50

c1cc2c(cc1NC1=NCCO1)OCO2
> 100 µM: HCT-15
inactive: 786-0 > 100 µM | A498 > 100 µM | A549 > 100 µM | ACHN > 100 µM | CAKI-1 > 100 µM | CCRF-CEM 12.9 µM | COLO 205 > 100 µM | DU-145 > 100 µM | EKVX > 100 µM | HCC 2998 > 100 µM | HCT-116 > 100 µM | HL-60 41.2 µM | HOP-62 > 100 µM | HOP-92 > 70.3 µM | HT-29 > 100 µM | Hs-578T > 100 µM | IGROV-1 > 100 µM | K562 11.9 µM | KM12 > 100 µM | LOX IMVI > 100 µM | M14 > 100 µM | MCF7 > 100 µM | MDA-MB-231 > 100 µM | MDA-MB-435 50.4 µM | MDA-N 42.2 µM | MOLT-4 > 100 µM | Malme-3M > 100 µM | NCI-H226 > 100 µM | NCI-H23 > 100 µM | NCI-H460 > 100 µM | NCI-H522 > 100 µM | NCI/ADR-RES > 100 µM | OVCAR-3 > 100 µM | OVCAR-4 > 100 µM | OVCAR-5 > 100 µM | OVCAR-8 > 100 µM | PC-3 > 100 µM | RPMI-8226 > 100 µM | RXF 393 > 100 µM | SF-268 > 100 µM | SF-295 > 100 µM | SF-539 > 100 µM | SK-MEL-28 > 100 µM | SK-MEL-2 > 100 µM | SK-MEL-5 > 100 µM | SK-OV-3 > 100 µM | SN12C > 100 µM | SNB-19 > 100 µM | SNB-75 45.9 µM | SR 64.3 µM | SW-620 > 100 µM | T47D > 100 µM | TK-10 > 100 µM | U-251 > 100 µM | UACC-62 > 100 µM | UO-31 > 100 µM

Cc1ccc(SCC(CF)OCn2cc(F)c(=O)[nH]c2=O)cc1 (stereo not given)
> 100 µM: HCT-15
inactive: 786-0 > 100 µM | A498 > 100 µM | A549 > 100 µM | ACHN > 100 µM | CAKI-1 > 100 µM | CCRF-CEM 55.2 µM | DU-145 > 100 µM | EKVX > 100 µM | HCC 2998 > 100 µM | HCT-116 > 100 µM | HL-60 76.9 µM | HOP-62 > 100 µM | HOP-92 > 100 µM | HT-29 > 100 µM | Hs-578T > 100 µM | IGROV-1 > 100 µM | K562 > 100 µM | LOX IMVI > 100 µM | M14 > 100 µM | MCF7 > 100 µM | MDA-MB-231 > 100 µM | MDA-MB-435 > 100 µM | MDA-N > 100 µM | MOLT-4 > 100 µM | Malme-3M > 100 µM | NCI-H23 > 100 µM | NCI-H460 > 100 µM | NCI-H522 > 100 µM | NCI/ADR-RES > 100 µM | OVCAR-3 > 100 µM | OVCAR-4 > 100 µM | OVCAR-5 > 100 µM | OVCAR-8 > 100 µM | PC-3 > 100 µM | RPMI-8226 > 100 µM | RXF 393 > 100 µM | SF-268 > 100 µM | SF-295 > 100 µM | SF-539 > 100 µM | SK-MEL-28 > 100 µM | SK-MEL-2 > 100 µM | SK-MEL-5 > 100 µM | SK-OV-3 > 100 µM | SNB-19 > 100 µM | SR > 100 µM | SW-620 > 100 µM | T47D > 100 µM | TK-10 > 100 µM | U-251 > 100 µM | UACC-257 > 100 µM | UO-31 > 100 µM

CSc1ccccc1NC1=NCCO1
inactive: 786-0 > 100 µM | A498 > 100 µM | A549 > 100 µM | ACHN > 100 µM | CAKI-1 > 100 µM | CCRF-CEM > 100 µM | COLO 205 > 100 µM | DU-145 > 100 µM | EKVX > 100 µM | HCC 2998 > 100 µM | HCT-116 > 100 µM | HL-60 > 100 µM | HOP-62 > 100 µM | HOP-92 > 100 µM | HT-29 > 100 µM | Hs-578T > 100 µM | IGROV-1 > 100 µM | K562 > 100 µM | KM12 > 100 µM | LOX IMVI > 100 µM | M14 > 100 µM | MCF7 > 100 µM | MDA-MB-231 > 100 µM | MDA-MB-435 > 100 µM | MDA-N > 100 µM | MOLT-4 > 100 µM | Malme-3M > 100 µM | NCI-H226 > 100 µM | NCI-H23 > 100 µM | NCI-H460 > 100 µM | NCI-H522 > 100 µM | NCI/ADR-RES > 100 µM | OVCAR-3 > 100 µM | OVCAR-4 > 100 µM | OVCAR-5 > 100 µM | OVCAR-8 > 100 µM | PC-3 > 100 µM | RPMI-8226 > 100 µM | RXF 393 > 100 µM | SF-268 > 100 µM | SF-295 > 100 µM | SF-539 > 100 µM | SK-MEL-28 > 100 µM | SK-MEL-2 > 100 µM | SK-MEL-5 > 100 µM | SN12C > 100 µM | SNB-19 > 100 µM | SR > 100 µM | SW-620 > 100 µM | T47D > 100 µM | TK-10 > 100 µM | U-251 > 100 µM | UACC-257 > 100 µM | UACC-62 > 100 µM | UO-31 > 100 µM
> 100 µM: HCT-15
